Experimental data published in patent US8921372B2, “Inhibitors of hepatitis C virus” (Theravance Biopharma R&D IP, LLC, priority 2010, dated 2014).

Tests used:
[1] = system: HCV genotype 1b replicon cell line (APC144; Huh7 cell background); test: HCV Genotype 1b Replicon Assay (Renilla luciferase readout); assay type: cell-based; conditions: Hepatitis C virus, Huh-7; read-out: Genotype 1b (pEC50 class, HCV genotype 1b replicon assay) (converted)
Method in brief: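 Reported as pEC50 derived from a 4-parameter fit of Renilla luciferase activity against concentration. Replicon cells (APC144, Huh7 background) were exposed to compound for 48 h in G418-free medium with final 0.5% DMSO, after seeding at 10,000 cells/well and 4 h adherence.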

[2] = system: HCV genotype 1a replicon cell line (APC89; Huh7.5 cell background); test: HCV Genotype 1a Replicon Assay (NS3-specific protease activity readout); assay type: cell-based; conditions: Hepatitis C virus, 72 hour incubation, read-out: Genotype 1a (pEC50 class, HCV genotype 1a replicon assay) (converted)
Method in brief: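 EC50 values came from a 4-parameter robust fit of fluorescence (ex 340, em 509 nm) produced by NS3-specific protease in lysates, assayed with 15 μM FRET substrate for 20 min at 37° C, after 48 or 72 hours of compound exposure (0.5% DMSO) of Huh7.5-derived APC89 genotype 1a replicon cells.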

Row | Compound | EC50 [1] [nM] | EC50 [2] [nM]
1 | COC(=O)N[C@H](C(=O)N1CCC[C@H]1c1nc(-c2ccc(-c3ccc(C(=O)Nc4ccc(N5CCN(C(=O)[C@]6(C)CCCN6C(=O)C(C)(C)O)C[C@H]5C)nc4)cc3OC(F)(F)F)cc2)c[nH]1)C(C)C [Example 69] | < 0.1 | 0.1 to 1
2 | COC(=O)N[C@H](C(=O)N1CCC[C@H]1c1nc(-c2ccc(-c3ccc(NC(=O)c4ccc(N5C[C@H](C)N(C(=O)[C@H]6CC6(C)C)C[C@H]5C)nc4)c(C)n3)cc2)c[nH]1)C(C)C [Example 71, {(S)-1-[(S)-2-(4-{4-[5-({6-[(2R,5S)-4-((S)-2,2-Dimethyl-cyclopropanecarbonyl)-2,5-dimethyl-piperazin-1-yl]-pyridine-3-carbonyl}-amino)-6-methyl-pyridin-2-yl]-phenyl}-1H-imidazol-2-yl)-pyrrolidine-1-carbonyl]-2-methyl-propyl}-carbamic acid methyl ester] | < 0.1 | 0.1 to 1
